Test results taken from patent US20220370468A1, “Methods of treating sleep disorders associated with pain” (Astellas Pharma Global Development, Inc., priority 2019, published 2022).

Columns and labels:
[1] = tested on: patients with fibromyalgia; assay: Phase 2a randomized double-blind placebo-controlled study: mean daily average pain score (NRS); format: in vivo, human
Experimental: (§1) A phase 2a, randomized, double-blind, placebo-controlled, parallel group study was conducted at 24 sites in the United States to assess the analgesic efficacy and safety of the compound of Formula (I) in patients with fibromyalgia. The study consisted of the following: a screening period of up to 42 days, which included a washout period and a 7-day baseline diary run-in; a 57-day double-blind randomized treatment period with site visits at Days 1, 15, 29, and 57; and a 4-week follow-up period consisting of a clinic visit after 2 weeks and a phone call after 4 weeks. The study was carried out in accordance with the Declaration of Helsinki and approved by the relevant Institutional Review Boards. All participants provided written informed consent prior to the initiation of any study procedures.
Male and female patients aged 18 to 80 years were included in the trial if they met the American College of Rheumatology (ACR) 1990 and 2010 fibromyalgia diagnostic criteria at screening (Wolfe et al., 1990; Wolfe et al., 2010b). The core diagnostic criteria for fibromyalgia are defined by the 1990 criteria (Wolfe et al., 1990), and while ACR has published newer criteria, the 1990 version is still commonly utilized in clinical trials. […]
The primary efficacy endpoint for pain was change from baseline to Week 8 in mean daily average pain score assessed by the Numeric Rating Scale (NRS; 0 to 10 scale). […]
(§2) Secondary efficacy endpoints included the number of patients achieving a ≥30% or ≥50% reduction in mean daily average pain score assessed by NRS (0 to 10 scale) from baseline to Week 8 and end of treatment (EOT; Day 57); change from baseline to Weeks 2, 4, 8, and EOT in the FIQR function, symptoms, and overall impact subscales; and overall improvement assessed by patient global impression of change (PGIC) (Rampakakis et al., 2015) at Weeks 2, 4, 8, and EOT.

[2] = tested on: patients with fibromyalgia; assay: Phase 2a study: Fibromyalgia Impact Questionnaire Revised (FIQR); format: in vivo, human; conditions: for FIQR total score improvement from baseline, LS mean difference versus placebo: ANCOVA
Experimental: as §1
Male and female patients aged 18 to 80 years were included in the trial if they met the American College of Rheumatology (ACR) 1990 and 2010 fibromyalgia diagnostic criteria at screening (Wolfe et al., 1990; Wolfe et al., 2010b). The core diagnostic criteria for fibromyalgia are defined by the 1990 criteria (Wolfe et al., 1990), and while ACR has published newer criteria, the 1990 version is still commonly utilized in clinical trials. To meet ACR 1990 criteria, patients must have had widespread pain for at least 3 months, defined as the presence of pain on the right and left sides of the body, pain above and below the waist, and pain in the axial skeleton (cervical spine, anterior chest, thoracic spine, or low back) (Wolfe et al., 1990). They must also have had pain in at least 11 of 18 tender point sites on digital palpation performed with an approximate force of 4 kg. To meet the ACR 2010 criteria, patients needed to have a widespread pain index (WPI) score of ≥7 and a symptom severity (SS) scale score ≥5, or a WPI score 3-6 and an SS scale score ≥9 (Wolfe et al., 2010b). Symptoms must have been present at a similar level for at least 3 months and patients must have been free of any other disorder that could have explained the pain.
Eligible patients were randomized 1:1 using Interactive Response Technology to receive oral Compound of Formula (I) 15 mg (three capsules of 5 mg) or matching placebo capsules, each given once daily in the morning, with or without food, for 8 weeks.
as §2
Questionnaires on efficacy, such as FIQR and PGIC, were completed during study visits. The FIQR captures the full spectrum of problems related to fibromyalgia and the responses to therapy, ranging from activities of daily living, overall impact, and symptoms (Bennett et al., 2009). Patients answered each question on an 11-point NRS over a recall period of the last 7 days or the last time the activity was performed (for the physical function domain if the activity was not performed within the 7-day recall period). The PGIC is a self-administered 7-point Likert scale that asks patients to evaluate their fibromyalgia relative to baseline (from “very much improved” to “very much worse”) (Rampakakis et al., 2015).
In FIG. 2, the change from baseline in FIQR total score is depicted. The FIQR total score represents the sum of the three sub scale scores: symptom, function, and overall impact. The symptom sub scale accounts for 50%, the function subscale accounts for 30%, and the overall impact subscale accounts for 20% of the total score. Data from double-blind period are presented as LS mean±standard error; data from follow-up period are presented as mean±standard error. […]

[3] = tested on: patients with fibromyalgia; assay: Phase 2a study: patient global impression of change (PGIC); format: in vivo, human; conditions: 15 mg once daily
Experimental: as §1, with “procedures. […]” for “procedures.”
as §2, with “EOT. […]” for “EOT.”

[4] = Nonclinical studies: brain penetration and ADME profile
[5] = Nonclinical studies: toxicological profile

brain penetration ([4]; nonclinical): poor brain penetration | absorption, distribution, metabolism, and excretion (ADME) profile ([4]; nonclinical studies): acceptable
SMILES: Cc1sc2cc(Cl)ccc2c1-c1ccc(N2CCO[C@H](CNC3CCC3)C2)c(C(=O)O)c1 [Compound of Formula (I)]
responder analysis of mean daily average pain score (≥30% or ≥50% reduction) versus placebo ([1]; 15 mg once daily): no statistically significant differences | change from baseline in mean daily average pain score versus placebo ([1]; Weeks 2, 6 and 7, FIG. 1): statistically significant treatment differences in favor of Compound of Formula (I) | change from baseline in mean daily average pain score (NRS 0-10), primary endpoint ([1]; baseline to Week 8, 15 mg oral once daily, placebo −1.26): −1.60 | FIQR total score improvement from baseline, LS mean difference versus placebo ([2]; EOT, LOCF imputation, P=0.050): −3.75 | FIQR overall impact subscale, LS mean difference versus placebo ([2]; Week 4, P=0.018): −1.34 | FIQR total score reduction from baseline, LS mean difference versus placebo ([2]; Week 4, P=0.033): −4.14 | FIQR symptoms subscale, LS mean difference versus placebo ([2]; Week 4, P=0.039): −3.73 | FIQR function subscale, LS mean difference versus placebo ([2]; Week 4, P=0.103): −2.97 | reduction from baseline in FIQR function, symptoms subscale, or overall impact subscale versus placebo ([2]; baseline to Week 8): no statistically significant differences | FIQR total score improvement from baseline, LS mean difference versus placebo ([2]; baseline to Week 8, mBOCF imputation, P=0.036): −4.10 | FIQR total score reduction from baseline, LS mean difference versus placebo ([2]; baseline to Week 8, MMRM analysis, P=0.093): −3.27 | overall patient improvement assessed by PGIC versus placebo [3]: no statistically significant differences | toxicological profile [5]: acceptable toxicological profile
